# Results taken from patent publication US20230321251A1, “LIPOSOME FORMULATION CONTAINING ANTIBACTERIAL AGENT” (priority 2020, published 2023).
# Values joined by “and” are separate entries in the source; they are usually repeats but may differ in a detail not shown here. Identical values can stand only once.
# Legend:
# S. aureus VRS1 = test: In vitro antibacterial activity (MIC), agar plate dilution; assay type: cell-based, Staphylococcus aureus; conditions: for minimum inhibitory concentration (MIC): S. aureus VRS1, 1000 cfu/spot
# Method: (§1) A minimum inhibitory concentration was measured as in vitro antibacterial activity. The minimum inhibitory concentration (MIC: μg/ml) was measured according to the standard method of Japanese Society of Chemotherapy, by an agar plate dilution method using 1000 cfu/spot as an inoculum amount and a susceptibility disk medium as a test medium.
# (§2) In the tables, a unit of a numerical value of inhibitory activity is μg/ml. In addition, in the tables, S. aureus represents Staphylococcus aureus and E. faecalis represents Gram-positive group D streptococci (enterococci) that are resident in a normal bacterial flora of a human intestinal tract, and can be causative bacteria of endocarditis and the like after surgery.
# S. aureus ATCC700787 = test: as above; assay type: cell-based, Staphylococcus aureus
# Method: as §1, §2
# [1] = Plasma concentration of active ingredient after intravenous administration (PK parameters)
# Method: (2) Plasma Concentration of Active Ingredient after Administration of Liposome Formulation
# 1) Animals used: ICR mice were used.
# 2) Breeding conditions: The mice were allowed to freely take chow and sterilized tap water.
# 3) Dose and grouping setting: A predetermined dose was intravenously administered. The intravenous dose was 5 mg/kg (n=3).
# 4) Formulation of dosing solution: The dosing solution was administered as a 5% glucose solution.
# 5) Administration method: Administration was performed via the tail vein through a syringe with an injection needle.
# 6) Evaluation item: Blood was collected over time, and the plasma concentration of the compound of the present invention was measured using LC/MS/MS.
# 7) Parameter analysis: For the plasma concentration of the compound of the present invention, area under the plasma concentration-time curve (AUC), systemic clearance (CLtot), elimination half-life (t½), and steady state distribution volume (Vdss) of the compound of the present invention were calculated by non-compartmental model analysis.
# [2] = Tissue distribution test (plasma, liver, kidney, lung); conditions: ICR mice; for Kidney Concentration / Liver Concentration / Lung Concentration / Plasma Concentration / Kidney Kp / Liver Kp / Lung Kp: iv 5 mg/kg; for concentration at 0.5 h / concentration at 2 h / concentration at 24 h / Kp at 0.5 h / Kp at 2 h / Kp at 24 h: ICR, mouse, in vivo, iv, 5 mg/kg
# Method: (3) Tissue Distribution of Active Ingredient after Administration of Liposome Formulation
# (Tissue Distribution Test)
# The compound of the present invention was intravenously administered at a dose of 5 mg/kg to ICR mice. […] Then, the liver, kidney, and lung were removed, and a 25% homogenate was prepared with distilled water. The obtained blood was centrifuged, and plasma was then obtained. Thereafter, each sample was measured using LC/MS/MS. The concentration value ratio (each tissue/plasma) obtained was used as a tissue Kp value.
# E. faecalis SR1004 = test: In vitro antibacterial activity (MIC), agar plate dilution; assay type: cell-based; conditions: for minimum inhibitory concentration (MIC): E. faecalis SR1004, 1000 cfu/spot
# Method: as §1, §2
# E. faecalis SR7914 = test: as above; assay type: cell-based; conditions: for minimum inhibitory concentration (MIC): E. faecalis SR7914, 1000 cfu/spot
# Method: as §1, §2
# E. faecium SR7940 = test: as above; assay type: cell-based; conditions: for minimum inhibitory concentration (MIC): E. faecium SR7940, 1000 cfu/spot
# Method: as §1, §2
# E. faecium SRM1101 = test: as above; assay type: cell-based
# Method: as §1, §2
# S. aureus ATCC25923 = test: as above; assay type: cell-based, Staphylococcus aureus
# Method: as §1, §2
# [3] = ICR mice, intravenous 5 mg/kg, plasma
# [4] = ICR, mouse, in vivo, iv, 5 mg/kg
compound,measurement,setting,value
"CN[C@H](CC(C)C)C(=O)N[C@H]1C(=O)N[C@@H](CC(N)=O)C(=O)N[C@H]2C(=O)N[C@H]3C(=O)N[C@H](C(=O)N[C@H](C(=O)O)c4cc(O)cc(O)c4-c4cc3ccc4O)[C@H](O[C@H]3C[C@](C)(N)[C@@H](O)[C@H](C)O3)c3ccc(c(Cl)c3)Oc3cc2cc(c3O[C@@H]2O[C@H](CO)[C@@H](O)[C@H](O)[C@H]2O[C@H]2C[C@](C)(NCc3ccc(-c4ccc(Cl)cc4)cc3)[C@@H](O)[C@H](C)O2)Oc2ccc(cc2Cl)[C@H]1O [Oritavancin drug substance, oritavancin]",minimum inhibitory concentration (MIC),S. aureus VRS1,4 µg/mL and 2 µg/mL
same,minimum inhibitory concentration (MIC),"S. aureus ATCC700787; S. aureus ATCC700787, 1000 cfu/spot",4 µg/mL and 2 µg/mL
same,CL tot,[1]; [3],0.989 ± 0.049 mL/min/kg
same,T1/2,[1]; [3],2.2 ± 1.3 h
same,Kidney Concentration,[2]; 0.5 hour after administration,10300 ± 1090 ng/mL
same,Liver Concentration,[2]; 0.5 hour after administration,14800 ± 1230 ng/mL
same,Lung Concentration,[2]; 0.5 hour after administration,15100 ± 563 ng/mL
same,Plasma Concentration,[2]; 0.5 hour after administration,34400 ± 4550 ng/mL
same,Kidney Concentration,[2]; 2 hours after administration,8720 ± 538 ng/mL
same,Liver Concentration,[2]; 2 hours after administration,24900 ± 1400 ng/mL
same,Lung Concentration,[2]; 2 hours after administration,10100 ± 1010 ng/mL
same,Plasma Concentration,[2]; 2 hours after administration,14900 ± 1710 ng/mL
same,Kidney Concentration,[2]; 24 hours after administration,4090 ± 462 ng/mL
same,Liver Concentration,[2]; 24 hours after administration,38500 ± 2780 ng/mL
same,Lung Concentration,[2]; 24 hours after administration,3790 ± 388 ng/mL
same,Plasma Concentration,[2]; 24 hours after administration,63.9 ± 12.0 ng/mL
same,Kidney Kp,"[2]; kidney/plasma concentration ratio, 0.5 hour",0.30 ± 0.04
same,Kidney Kp,"[2]; kidney/plasma concentration ratio, 2 hours",0.59 ± 0.05
same,Kidney Kp,"[2]; kidney/plasma concentration ratio, 24 hours",66.12 ± 17.05
same,Liver Kp,"[2]; liver/plasma concentration ratio, 0.5 hour",0.44 ± 0.08
same,Liver Kp,"[2]; liver/plasma concentration ratio, 2 hours",1.68 ± 0.10
same,Liver Kp,"[2]; liver/plasma concentration ratio, 24 hours",611.35 ± 72.9
same,Lung Kp,"[2]; lung/plasma concentration ratio, 0.5 hour",0.44 ± 0.07
same,Lung Kp,"[2]; lung/plasma concentration ratio, 2 hours",0.68 ± 0.09
same,Lung Kp,"[2]; lung/plasma concentration ratio, 24 hours",61.19 ± 15.12
same,minimum inhibitory concentration (MIC),E. faecalis SR1004,2 µg/mL and 1 µg/mL
same,minimum inhibitory concentration (MIC),E. faecalis SR7914,2 µg/mL and 1 µg/mL
same,minimum inhibitory concentration (MIC),E. faecium SR7940,2 µg/mL
same,minimum inhibitory concentration (MIC),"E. faecium SRM1101; E. faecium SRM1101, 1000 cfu/spot",2 µg/mL and 4 µg/mL
"CCCCCCCCCCNCCN[C@@]1(C)C[C@H](O[C@H]2[C@H](Oc3c4cc5cc3Oc3ccc(cc3Cl)[C@@H](O)[C@@H]3NC(=O)[C@H](NC(=O)[C@@H]5NC(=O)[C@H](CC(N)=O)NC(=O)C(NC(=O)[C@@H](CC(C)C)NC)[C@H](O)c5ccc(c(Cl)c5)O4)c4ccc(O)c(c4)-c4c(cc(O)c(CNCP(=O)(O)O)c4O)[C@@H](C(=O)O)NC3=O)O[C@H](CO)[C@@H](O)[C@@H]2O)O[C@@H](C)[C@H]1O (some centres unmarked) [Telavancin drug substance, telavancin]",minimum inhibitory concentration (MIC),"S. aureus ATCC25923; S. aureus ATCC25923, 1000 cfu/spot",0.25 µg/mL
same,MIC,"S. aureus ATCC25923; Staphylococcus aureus, ATCC25923, read-out: minimum inhibitory concentration (MIC), S. aureus ATCC25923, 1000 cfu/spot",0.5 µg/mL
same,minimum inhibitory concentration (MIC),S. aureus VRS1,2 µg/mL
same,MIC,"S. aureus VRS1; Staphylococcus aureus, VRS1, read-out: minimum inhibitory concentration (MIC), S. aureus VRS1, 1000 cfu/spot",4 µg/mL
same,MIC,"S. aureus ATCC700787; Staphylococcus aureus, ATCC700787, read-out: minimum inhibitory concentration (MIC)",1 µg/mL
same,AUC(0-inf),[1]; [4],57200 ± 12800 ng·h/mL
same,clearance,[1]; [4],1.52 ± 0.32 mL/min/kg
same,half-life,[1]; [4],2.7 ± 2.7 h
same,concentration at 0.5 h,"[2]; Kidney Concentration, 0.5 hour after administration",19000 ± 4110 ng/mL
same,concentration at 2 h,"[2]; Kidney Concentration, 2 hours after administration",12700 ± 2470 ng/mL
same,concentration at 24 h,"[2]; Kidney Concentration, 24 hours after administration",5930 ± 1600 ng/mL
same,Kp at 0.5 h,"[2]; Kidney Kp, kidney/plasma concentration ratio, 0.5 hour",1.05 ± 0.23
same,Kp at 2 h,"[2]; Kidney Kp, kidney/plasma concentration ratio, 2 hours",1.64 ± 0.12
same,Kp at 24 h,"[2]; Kidney Kp, kidney/plasma concentration ratio, 24 hours",49.9
same,concentration at 0.5 h,"[2]; Liver Concentration, 0.5 hour after administration",3780 ± 201 ng/mL
same,concentration at 2 h,"[2]; Liver Concentration, 2 hours after administration",4050 ± 256 ng/mL
same,concentration at 24 h,"[2]; Liver Concentration, 24 hours after administration",2340 ± 465 ng/mL
same,Kp at 0.5 h,"[2]; Liver Kp, liver/plasma concentration ratio, 0.5 hour",0.21 ± 0.01
same,Kp at 2 h,"[2]; Liver Kp, liver/plasma concentration ratio, 2 hours",0.53 ± 0.05
same,Kp at 24 h,"[2]; Liver Kp, liver/plasma concentration ratio, 24 hours",17.2
same,concentration at 0.5 h,"[2]; Lung Concentration, 0.5 hour after administration",5860 ± 208 ng/mL
same,concentration at 2 h,"[2]; Lung Concentration, 2 hours after administration",2820 ± 162 ng/mL
same,concentration at 24 h,"[2]; Lung Concentration, 24 hours after administration",736 ± 158 ng/mL
same,Kp at 0.5 h,"[2]; Lung Kp, lung/plasma concentration ratio, 0.5 hour",0.32 ± 0.03
same,Kp at 2 h,"[2]; Lung Kp, lung/plasma concentration ratio, 2 hours",0.37 ± 0.04
same,Kp at 24 h,"[2]; Lung Kp, lung/plasma concentration ratio, 24 hours",5.75
same,concentration at 0.5 h,"[2]; Plasma Concentration, 0.5 hour after administration",18200 ± 627 ng/mL
same,concentration at 2 h,"[2]; Plasma Concentration, 2 hours after administration",7700 ± 977 ng/mL
same,concentration at 24 h,"[2]; Plasma Concentration, 24 hours after administration",51.9 ± 89.9 ng/mL
same,minimum inhibitory concentration (MIC),E. faecalis SR1004,0.5 µg/mL
same,MIC,"E. faecalis SR1004; Enterococcus faecalis, SR1004, read-out: minimum inhibitory concentration (MIC), E. faecalis SR1004, 1000 cfu/spot",1 µg/mL
same,minimum inhibitory concentration (MIC),E. faecalis SR7914,2 µg/mL
same,MIC,"E. faecalis SR7914; Enterococcus faecalis, SR7914, read-out: minimum inhibitory concentration (MIC), E. faecalis SR7914, 1000 cfu/spot",4 µg/mL
same,minimum inhibitory concentration (MIC),E. faecium SR7940,2 µg/mL
same,MIC,"E. faecium SR7940; Enterococcus faecium, SR7940, read-out: minimum inhibitory concentration (MIC), E. faecium SR7940, 1000 cfu/spot",4 µg/mL
same,MIC,"E. faecium SRM1101; Enterococcus faecium, SRM1101, read-out: minimum inhibitory concentration (MIC)",4 µg/mL
